Experimental data taken from patent US10519169B2, “3-(1H-pyrrolo[2,3-C]pyridin-2-yl)-1 H-pyrazolo[4,3-B]pyridines and therapeutic uses thereof” (Samumed, LLC, priority 2015, dated 2019).

Tests used:
Format in all cases: cell-based
[1] = test system: primary human fibroblasts derived from IPF patients (LL29 cells) treated with TGF-β1; assay: Inhibition of fibrotic process, αSMA staining in TGF-β1 treated LL29 fibroblasts; conditions: Fibroblast; for EC50: 96 h, TGF-β1 20 ng/mL, 4 days, % cells positive for αSMA; for inhibition at 10 µM: given for EC50 >10 μM, TGF-β1, αSMA, read-out: percent inhibition at 10 μM
Description: Representative compounds were screened using primary human fibroblasts (derived from IPF patients) treated with TGF-β1 to determine their ability to inhibit the fibrotic process.
Primary human fibroblasts derived from IPF patients (LL29 cells) [^1Xiaoqiu Liu, et. al., “Fibrotic Lung Fibroblasts Show Blunted Inhibition by cAMP Due to Deficient cAMP Response Element-Binding Protein Phosphorylation”, Journal of Pharmacology and Experimental Therapeutics (2005), 315(2), 678-687; ^2Watts, K. L., et. al., “RhoA signaling modulates cyclin D1 expression in human lung fibroblasts; implications for idiopathic pulmonary fibrosis”, Respiratory Research (2006), 7(1), 88] were obtained from American Type Culture Collection (ATCC) and expanded in F12 medium supplemented with 15% Fetal Bovine Serum and Penicillin/Streptomycin.
Each compound was dissolved in DMSO as a 10 mM stock and used to prepare compound source plates. Serial dilution (1:2, 11-point dose-response curves from […] to […]) and compound transfer was performed using the ECHO 550 (Labcyte, Sunnyvale, Calif.) into 384-well clear bottom assay plates (Greiner Bio-One) with appropriate DMSO backfill for a final DMSO concentration of 0.1%. LL29 cells are plated at 1,500 cells/well in 80 μL/well F12 medium supplemented with 1% Fetal Bovine Serum. One hour after addition of the cells, TGF-β1 (Peprotech; 20 ng/mL) was added to the plates to induce fibrosis (ref. 1 and 2 above). Wells treated with TGF-β1 and containing DMSO were used as controls. Cells were incubated at 37° C. and 5% CO2 for 4 days. Following incubation for 4 days, SYTOX green nucleic acid stain (Life Technologies [Thermo Fisher Scientific]) was added to the wells at a final concentration of 1 μM and incubated at room temperature for 30 min. Cells were then fixed using 4% formaldehyde (Electron Microscopy Sciences), washed 3 times with PBS followed by blocking and permeabilization using 3% Bovine Serum Albumin (BSA; Sigma) and 0.3% Triton X-100 (Sigma) in PBS. Cells were then stained with antibody specific to α-smooth muscle actin (aSMA; Abcam) (ref. 1 and 2 above) in 3% Bovine Serum Albumin (BSA; Sigma) and 0.3% Triton X-100 (Sigma) in PBS, and incubated overnight at 4° C. Cells were then washed 3 times with PBS, followed by incubation with Alexa Flor-647 conjugated secondary antibody (Life Technologies [Thermo Fisher Scientific]) and DAPI at room temperature for 1 hour. Cells were then washed 3 times with PBS and plates were sealed for imaging. aSMA staining was imaged by excitation at 630 nm and emission at 665 nm and quantified using the Compartmental Analysis program on the CellInsight CX5 (Thermo Scientific). Dead or apoptotic cells were excluded from analysis based on positive SYTOX green staining. % of total cells positive for aSMA were counted in each well and normalized to the average of 11 wells treated with TGF-β1 on the same plate using Dotmatics' Studies Software. The normalized averages (fold change over untreated) of 3 replicate wells for each compound concentration were used to create dose-responses curves and EC50 values were calculated using non-linear regression curve fit in the Dotmatics' Studies Software. For EC50 of >10 μM, the percent inhibition at 10 μM is provided.

SW480 colon cancer cells = assay: Cell viability assay (CellTiter-Blue), SW480 cells; conditions: Homo sapiens, 96 h, four days, CellTiter-Blue
Experimental: Representative compounds were screened using the following assay procedure to assess the effect on cell viability as described below.
Each compound was dissolved in DMSO as a 10 mM stock and used to prepare compound source plates. Serial dilution (1:3, 8-point dose-response curves from […]) and compound transfer was performed using the ECHO 550 (Labcyte, Sunnyvale, Calif.) into 96-well clear bottom, black-walled plates (Corning-Costar).
Approximately 2×10^3 SW480 colon cancer cells were seeded into each well and allowed to incubate in the presence or absence of compound for four days at 37° C./5% CO2. Eight replicates of DMSO-treated cells served as controls and cells treated with compound were performed in duplicate.
After incubation, 20 μL of CellTiter-Blue (Promega) was added to each well allowed to incubate for approximately 3 hours. This reagent was a buffered solution which contains resazurin, metabolically active cells were able to reduce rezarurin (blue) into resorufin (pink) which was highly fluorescent. This measured fluorescence was used as a readout for cell viability.
After incubation, the plates were read at Ex 560 nm Em 590 nm (Cytation 3, BioTek). Dose-response curves were generated and EC50 concentration values were calculated using non-linear regression curve fit in the GraphPad Prism (San Diego, Calif.) or Dotmatics' Studies Software (Bishops Stortford, UK). For EC50 of >10 μM, the percent inhibition at 10 μM is provided.

IL-6 = IL-6 inhibition in LPS-stimulated THP-1 cells (HTRF); conditions: Homo sapiens, LPS 500 ng/mL, 22 hours, IL6 HTRF
Experimental: Human monocyte cell line (THP-1 cells; Catalog # TIB-202, ATCC, Manassas, Va.) were cultured in Roswell Park Memorial Institute (RPMI) 1640 Medium (Catalog #21870-100, Buffalo, N.Y.) with 1% L-glutamine, 1% HEPES, 1% Sodium Pyruvate, 2% Sodium Bicarbonate supplemented with 100 units/mL penicillin, 50 μg/mL streptomycin, 2-mercaptoethanol (0.05 mM) [basal medium] and 10% fetal bovine serum (Catalog #16140089, Life Technologies, Carlsbad, Calif.) at 37° C. and 5% CO2.
THP-1 cells were cultured in basal media with 1% FBS for 24 hours before the start of the assay. Each compound was dissolved in DMSO as a 10 mM stock and used to prepare compound source plates. Serial dilution (1:3, 10-point dose-response curves starting from 10 μM) and compound transfer was performed using the ECHO 550 (Labcyte, Sunnyvale, Calif.) into 384-well white low volume assay plates (Greiner Bio-One) with appropriate DMSO backfill for a final DMSO concentration of 0.1%. THP-1 cells were plated at 5000 cells/well in the 384-well plates and incubated at 37° C. for 2 h. 500 ng/mL of LPS was added after 2 hours and cells were incubated for another 22 hours at 37° C. Plates were spun in a centrifuge for 1 minute at […] and a mixture of anti-IL6 XL665, and anti-IL6 Cryptate diluted in reconstitution buffer (Cisbio Inc.) was added to each well. Following incubation for 3 hrs at room temperature, Homogeneous Time-Resolved Fluorescence (HTRF) was measured using the Envision (Perkin Elmer) at 665 nm and […]. The ratio of fluorescence at 665 nm to 620 nm was used as a readout for IL6 quantification. All samples were processed in duplicate. Readings were normalized to DMSO treated cells and normalized activities were utilized for EC50 calculations using the dose-response log (inhibitor) vs. response-variable slope (four parameters) nonlinear regression feature available in GraphPad Prism 5.0 (or Dotmatics). For EC50 of >10 μM, the percent inhibition at […] is provided.

[2] = test system: Wnt activity (Sp5-Luc reporter, TCF/LEF binding sites) in SW480 colon carcinoma cells; assay: Wnt activity screening assay, Sp5-Luc reporter gene in SW480 cells; conditions: Homo sapiens; for EC50: overnight incubation
Description: The screening assay for Wnt activity is described as follows. Reporter cell lines can be generated by stably transducing cancer cell lines (e.g., colon cancer) or primary cells (e.g., IEC-6 intestinal cells) with a lentiviral construct that includes a Wnt-responsive promoter driving expression of the firefly luciferase gene.
SW480 colon carcinoma cells were transduced with a lentiviral vector expressing luciferase with a human Sp5 promoter consisting of a sequence of eight TCF/LEF binding sites. SW480 cells stably expressing the Sp5-Luc reporter gene and a hygromycin resistance gene were selected by treatment with 150 μg/mL of hygromycin for 7 days. These stably transduced SW480 cells were expanded in cell culture and used for all further screening activities. Each compound was dissolved in DMSO as a 10 mM stock and used to prepare compound source plates. Serial dilution (1:3, 10-point dose-response curves starting from 10 μM) and compound transfer was performed using the ECHO 550 (Labcyte, Sunnyvale, Calif.) into 384-well white solid bottom assay plates (Greiner Bio-One) with appropriate DMSO backfill for a final DMSO concentration of 0.1%. For Sp5-Luc reporter gene assays, the cells were plated at 4,000 cells/well in 384-well plates with medium containing 1% fetal bovine serum and incubated overnight at 37° C. and 5% CO2. Following incubation, 20 μl of BrightGlo luminescence reagent (Promega) was added to each well of the 384-well assay plates. The plates were placed on an orbital shaker for 2 min and then luminescence was quantified using the Envision (Perkin Elmer) plate reader. Readings were normalized to DMSO only treated cells, and normalized activities were utilized for EC50 calculations using the dose-response log (inhibitor) vs. response-variable slope (four parameters) nonlinear regression feature available in GraphPad Prism 5.0 (or Dotmatics). For EC50 of >10 μM, the percent inhibition at 10 μM is provided.

Row | SMILES | EC50 (SW480 colon cancer cells) [nM] | EC50 (IL-6) [nM] | EC50 [2] [nM] | EC50 [1] [nM] | inhibition at 10 µM ([2]; given for EC50 >10 μM, 10 μM, read-out: percent inhibition at 10 μM) [%] | inhibition at 10 µM [1] [%]
1 | c1cc(-c2cncc3[nH]c(-c4n[nH]c5ccc(-c6cncc(CNCC7CCCC7)c6)nc45)cc23)co1 [Compound 333, 1-Cyclopentyl-N-((5-(3-(4-(furan-3-yl)-1H-pyrrolo[2,3-c]pyridin-2-yl)-1H-pyrazolo[4,3-b]pyridin-5-yl)pyridin-3-yl)methyl)methanamine] | 7840 | 456 | > 10000 | 1500 | 25.5 | –
2 | CCNCc1cncc(-c2ccc3[nH]nc(-c4cc5ccncc5[nH]4)c3n2)c1 [Compound 258, N-((5-(3-(1H-Pyrrolo[2,3-c]pyridin-2-yl)-1H-pyrazolo[4,3-b]pyridin-5-yl)pyridin-3-yl)methyl)ethanamine] | 3580 | 873 | 8450 | 6630 | – | –
3 | Cc1ccncc1-c1ccc2[nH]nc(-c3cc4c(-c5cccs5)cncc4[nH]3)c2n1 [Compound 341, 5-(4-Methylpyridin-3-yl)-3-(4-(thiophen-2-yl)-1H-pyrrolo[2,3-c]pyridin-2-yl)-1H-pyrazolo[4,3-b]pyridine] | 4250 | 118 | 4070 | 521 | – | –
4 | CS(=O)(=O)NCc1cc(F)cc(-c2cncc3[nH]c(-c4n[nH]c5ccc(-c6cncc(CN7CCC(F)(F)C7)c6)nc45)cc23)c1 [Compound 502, N-(3-(2-(5-(5-((3,3-Difluoropyrrolidin-1-yl)methyl)pyridin-3-yl)-1H-pyrazolo[4,3-b]pyridin-3-yl)-1H-pyrrolo[2,3-c]pyridin-4-yl)-5-fluorobenzyl)methanesulfonamide] | 3090 | 1760 | 2110 | > 10000 | – | 25.4
5 | Fc1ccccc1-c1cncc2[nH]c(-c3n[nH]c4ccc(-c5cncc(CNCc6ccccc6)c5)nc34)cc12 [Compound 80, N-Benzyl-1-(5-(3-(4-(2-fluorophenyl)-1H-pyrrolo[2,3-c]pyridin-2-yl)-1H-pyrazolo[4,3-b]pyridin-5-yl)pyridin-3-yl)methanamine] | 6720 | 5790 | 3980 | 4600 | – | –

These reach a lower EC50 (SW480 colon cancer cells). Values come first.

Row | EC50 (SW480 colon cancer cells) [nM] | EC50 (IL-6) [nM] | EC50 [2] [nM] | SMILES | EC50 [1] [nM] | inhibition at 10 µM ([2]; given for EC50 >10 μM, 10 μM, read-out: percent inhibition at 10 μM) [%] | inhibition at 10 µM [1] [%]
6 | 1480 | 1490 | 3350 | CN(C)CCOc1cncc(-c2ccc3[nH]nc(-c4cc5ccncc5[nH]4)c3n2)c1 [Compound 659, 2-((5-(3-(1H-Pyrrolo[2,3-c]pyridin-2-yl)-1H-pyrazolo[4,3-b]pyridin-5-yl)pyridin-3-yl)oxy)-N,N-dimethylethan-1-amine] | 4130 | – | –
7 | 1380 | 120 | 1730 | CC(C)Nc1cncc(-c2ccc3[nH]nc(-c4cc5c(-c6cccnc6)cncc5[nH]4)c3n2)c1 [Compound 96, N-Isopropyl-5-(3-(4-(pyridin-3-yl)-1H-pyrrolo[2,3-c]pyridin-2-yl)-1H-pyrazolo[4,3-b]pyridin-5-yl)pyridin-3-amine] | > 10000 | – | 0
8 | 1080 | 5800 | 2230 | c1csc(-c2cncc3[nH]c(-c4n[nH]c5ccc(-c6ccncc6)nc45)cc23)c1 [Compound 354, 5-(Pyridin-4-yl)-3-(4-(thiophen-2-yl)-1H-pyrrolo[2,3-c]pyridin-2-yl)-1H-pyrazolo[4,3-b]pyridine] | 1180 | – | –
9 | 897 | 157 | 1420 | O=C(Nc1cncc(-c2ccc3[nH]nc(-c4cc5c(-c6ccccc6F)cncc5[nH]4)c3n2)c1)C1CC1 [Compound 76, N-(5-(3-(4-(2-Fluorophenyl)-1H-pyrrolo[2,3-c]pyridin-2-yl)-1H-pyrazolo [4,3-b]pyridin-5-yl)pyridin-3-yl)cyclopropanecarboxamide] | 2040 | – | –
10 | 498 | 2360 | 3350 | c1ncc(-c2ccc3[nH]nc(-c4cc5c(N6CCCCC6)cncc5[nH]4)c3n2)cc1OC1CCCCC1 [Compound 607, 5-(5-(Cyclohexyloxy)pyridin-3-yl)-3-(4-(piperidin-1-yl)-1H-pyrrolo[2,3-c]pyridin-2-yl)-1H-pyrazolo[4,3-b]pyridine] | 199 | – | –
